Source: patent publication US20240360178A1, “MACROCYCLIC IMMUNOMODULATORS” (Bristol-Myers Squibb Company, priority 2021, published 2024)
Positions of bridges follow the written chain, without caps; N, C: chain ends. Non-standard residues stand in square brackets, D forms with d. Residues, ends and D or L forms follow the SMILES beside them. Bip = N[C@@H](Cc1ccc(-c2ccccc2)cc1)C(=O)O; NMeF = CN[C@@H](Cc1ccccc1)C(=O)O; 3Pal = N[C@@H](Cc1cccnc1)C(=O)O; 4Pal = N[C@@H](Cc1ccncc1)C(=O)O; Phg = N[C@H](C(=O)O)c1ccccc1; NMeA = CN[C@@H](C)C(=O)O; Orn = NCCC[C@H](N)C(=O)O; Dab = NCC[C@H](N)C(=O)O; Nva = CCC[C@H](N)C(=O)O; Abu = CC[C@H](N)C(=O)O

target: T1, human PD-1 (Jurkat-PD-1 cells) / PE-labeled human PD-L1-Ig (Homo sapiens, UniProt Q15116); experiment: Jurkat-PD-1 Cell Binding High-Content Screening Assay (CBA); Jurkat hPD1-PDL1 assay; conditions: Jurkat cell line over-expressing human PD-1; PE-labeled PD-L1-Ig 20 nM final; compound incubated 2 hours at 37° C.; read-out: Jurkat HPD1-PDL1 IC50
T1 construct: expressed in transfected cells; host or cells: Jurkat cell line over-expressing human PD-1
T1 sequence (Q15116 25-288): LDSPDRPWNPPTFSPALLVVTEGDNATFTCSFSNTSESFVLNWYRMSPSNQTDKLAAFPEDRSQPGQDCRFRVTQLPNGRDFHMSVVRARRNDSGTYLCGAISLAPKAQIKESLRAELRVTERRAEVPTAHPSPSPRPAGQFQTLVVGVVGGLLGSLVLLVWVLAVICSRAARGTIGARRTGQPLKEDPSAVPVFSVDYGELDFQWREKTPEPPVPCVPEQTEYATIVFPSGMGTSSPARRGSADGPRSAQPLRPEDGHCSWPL
Summary of the method: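 Binding of phycoerythrin-conjugated PD-L1-Ig (20 nM final) to PD-1-overexpressing Jurkat cells was read by high-content imaging. Cells in DMEM/10% FCS were exposed to compound for 2 hours at 37° C before labeled ligand was added.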

| IC50 | Compound |
| --- | --- |
| 680 nM | CC(C)C[C@@H]1NC(=O)[C@H](CCCNC(=N)N)NC(=O)[C@H](Cc2ccccc2)N(C)C(=O)[C@H](C)N(C)C(=O)[C@H](CCCNC(=N)N)NC(=O)[C@H](Cc2ccc(-c3ccccc3)cc2)NC(=O)[C@H](C(C)C)NC(=O)[C@H](Cc2c[nH]c3ccccc23)NC(=O)[C@H](CC(=O)O)NC(=O)[C@H](Cc2ccc(O)cc2)NC(=O)[C@H](Cc2ccccc2)NC(=O)CSC[C@@H](C(=O)NCC(N)=O)NC(=O)[C@H](CC(=O)O)NC(=O)[C@H](C(C)C)NC1=O [Example 1333] ({CH2CO}-FYDWV[Bip]R[NMeA][NMeF]RLVDCG-NH2; thioether N-14) |
| 430 nM | CC(C)C[C@@H]1NC(=O)[C@H](CCCNC(=N)N)NC(=O)[C@H](Cc2ccccc2)N(C)C(=O)[C@H](C)N(C)C(=O)[C@H](CCCNC(=N)N)NC(=O)[C@H](Cc2ccc(-c3ccccc3)cc2)NC(=O)[C@H](c2ccccc2)NC(=O)[C@H](Cc2c[nH]c3ccccc23)NC(=O)[C@H](CC(=O)O)NC(=O)[C@H](Cc2ccc(O)cc2)NC(=O)[C@H](Cc2ccccc2)NC(=O)CSC[C@@H](C(=O)NCC(N)=O)NC(=O)[C@H](CO)NC(=O)[C@H](C(C)C)NC1=O [Example 1334] ({CH2CO}-FYDW[Phg][Bip]R[NMeA][NMeF]RLVSCG-NH2; thioether N-14) |
| 140 nM | CCC[C@@H]1NC(=O)[C@H](Cc2c[nH]c3ccccc23)NC(=O)[C@H](CC(=O)O)NC(=O)[C@H](Cc2ccc(O)cc2)NC(=O)[C@H](Cc2ccccc2)NC(=O)CSC[C@@H](C(=O)NCC(N)=O)NC(=O)[C@H](CO)NC(=O)[C@H](C(C)C)NC(=O)[C@H](CC(C)C)NC(=O)[C@H](CCCNC(=N)N)NC(=O)[C@H](Cc2ccccc2)N(C)C(=O)[C@H](C)N(C)C(=O)[C@H](CCCNC(=N)N)NC(=O)[C@H](Cc2ccc(-c3ccccc3)cc2)NC1=O [Example 1335] ({CH2CO}-FYDW[Nva][Bip]R[NMeA][NMeF]RLVSCG-NH2; thioether N-14) |
| 410 nM | CC[C@@H]1NC(=O)[C@H](Cc2c[nH]c3ccccc23)NC(=O)[C@H](CC(=O)O)NC(=O)[C@H](Cc2ccc(O)cc2)NC(=O)[C@H](Cc2ccccc2)NC(=O)CSC[C@@H](C(=O)NCC(N)=O)NC(=O)[C@H](CO)NC(=O)[C@H](C(C)C)NC(=O)[C@H](CC(C)C)NC(=O)[C@H](CCCNC(=N)N)NC(=O)[C@H](Cc2ccccc2)N(C)C(=O)[C@H](C)N(C)C(=O)[C@H](CCCNC(=N)N)NC(=O)[C@H](Cc2ccc(-c3ccccc3)cc2)NC1=O [Example 1336] ({CH2CO}-FYDW[Abu][Bip]R[NMeA][NMeF]RLVSCG-NH2; thioether N-14) |
| 870 nM | CC[C@H](NC(=O)[C@@H]1CSCC(=O)N[C@@H](Cc2ccccc2)C(=O)N[C@@H](Cc2ccc(O)cc2)C(=O)N[C@@H](CC(=O)O)C(=O)N[C@@H](Cc2c[nH]c3ccccc23)C(=O)N[C@@H](C(C)C)C(=O)N[C@@H](Cc2ccc(-c3ccccc3)cc2)C(=O)N[C@@H](CCCNC(=N)N)C(=O)N(C)[C@@H](C)C(=O)N(C)[C@@H](Cc2ccccc2)C(=O)N[C@@H](CCCNC(=N)N)C(=O)N[C@@H](CC(C)C)C(=O)N[C@@H](C(C)C)C(=O)N[C@@H](CO)C(=O)N1)C(N)=O [Example 1337] ({CH2CO}-FYDWV[Bip]R[NMeA][NMeF]RLVSC[Abu]-NH2; thioether N-14) |
| 110 nM | CC(C)C[C@@H]1NC(=O)[C@H](CCCNC(=N)N)NC(=O)[C@H](Cc2ccccc2)N(C)C(=O)[C@H](C)N(C)C(=O)[C@H](CCCNC(=N)N)NC(=O)[C@H](Cc2ccc(-c3ccccc3)cc2)NC(=O)[C@H](C(C)C)NC(=O)[C@H](Cc2c[nH]c3ccccc23)NC(=O)[C@H](CC(=O)O)NC(=O)[C@H](Cc2ccc(O)cc2)NC(=O)[C@H](Cc2ccccc2)NC(=O)CSC[C@@H](C(=O)NCC(N)=O)NC(=O)[C@H](CCCN)NC(=O)[C@H](C(C)C)NC1=O [Example 1338] ({CH2CO}-FYDWV[Bip]R[NMeA][NMeF]RLV[Orn]CG-NH2; thioether N-14) |
| 200 nM | CC(C)C[C@@H]1NC(=O)[C@H](CCN)NC(=O)[C@H](Cc2ccccc2)N(C)C(=O)[C@H](C)N(C)C(=O)[C@H](CCCN)NC(=O)[C@H](Cc2ccc(-c3ccccc3)cc2)NC(=O)[C@H](C(C)C)NC(=O)[C@H](Cc2c[nH]c3ccccc23)NC(=O)[C@H](CC(=O)O)NC(=O)[C@H](Cc2ccc(O)cc2)NC(=O)[C@H](Cc2ccccc2)NC(=O)CSC[C@@H](C(=O)N[C@@H](C)C(N)=O)NC(=O)[C@H]([C@@H](C)O)NC(=O)[C@H](C(C)C)NC1=O [Example 1341] ({CH2CO}-FYDWV[Bip][Orn][NMeA][NMeF][Dab]LVTCA-NH2; thioether N-14) |
| 70 nM | CC(C)C[C@@H]1NC(=O)[C@H](CCN)NC(=O)[C@H](Cc2ccccc2)N(C)C(=O)[C@H](C)N(C)C(=O)[C@H](CCC(=O)O)NC(=O)[C@H](Cc2ccc(-c3ccccc3)cc2)NC(=O)[C@H](C(C)C)NC(=O)[C@H](Cc2c[nH]c3ccccc23)NC(=O)[C@H](CC(=O)O)NC(=O)[C@H](Cc2ccc(O)cc2)NC(=O)[C@H](Cc2ccccc2)NC(=O)CSC[C@@H](C(=O)N[C@@H](C)C(N)=O)NC(=O)[C@H]([C@@H](C)O)NC(=O)[C@H](C(C)C)NC1=O [Example 1342] ({CH2CO}-FYDWV[Bip]E[NMeA][NMeF][Dab]LVTCA-NH2; thioether N-14) |
| 370 nM | CC(C)C[C@@H]1NC(=O)[C@H](CCN)NC(=O)[C@H](Cc2ccccc2)N(C)C(=O)[C@H](C)N(C)C(=O)[C@H](CCC(=O)O)NC(=O)[C@H](Cc2ccc(-c3ccccc3)cc2)NC(=O)[C@H](C(C)C)NC(=O)[C@H](Cc2c[nH]c3ccccc23)NC(=O)[C@H](CC(=O)O)NC(=O)[C@H](Cc2ccc(O)cc2)NC(=O)[C@H](Cc2ccccc2)NC(=O)CSC[C@@H](C(=O)N[C@@H](CCC(=O)O)C(N)=O)NC(=O)[C@H]([C@@H](C)O)NC(=O)[C@H](C(C)C)NC1=O [Example 1343] ({CH2CO}-FYDWV[Bip]E[NMeA][NMeF][Dab]LVTCE-NH2; thioether N-14) |
| 220 nM | CC(C)C[C@@H]1NC(=O)[C@H](CCCNC(=N)N)NC(=O)[C@H](Cc2ccccc2)N(C)C(=O)[C@H](C)N(C)C(=O)[C@H](CCC(=O)O)NC(=O)[C@H](Cc2ccc(-c3ccccc3)cc2)NC(=O)[C@H](C(C)C)NC(=O)[C@H](Cc2c[nH]c3ccccc23)NC(=O)[C@H](CC(=O)O)NC(=O)[C@H](Cc2ccc(O)cc2)NC(=O)[C@H](Cc2ccccc2)NC(=O)CSC[C@@H](C(=O)N[C@@H](C)C(N)=O)NC(=O)[C@H]([C@@H](C)O)NC(=O)[C@H](C(C)C)NC1=O [Example 1344] ({CH2CO}-FYDWV[Bip]E[NMeA][NMeF]RLVTCA-NH2; thioether N-14) |
| 120 nM | CC(C)C[C@@H]1NC(=O)[C@H](CCCN)NC(=O)[C@H](Cc2ccccc2)N(C)C(=O)[C@H](C)N(C)C(=O)[C@H](CCCNC(=N)N)NC(=O)[C@H](Cc2ccc(-c3ccccc3)cc2)NC(=O)[C@H](C(C)C)NC(=O)[C@H](Cc2c[nH]c3ccccc23)NC(=O)[C@H](CC(=O)O)NC(=O)[C@H](Cc2ccc(O)cc2)NC(=O)[C@H](Cc2ccccc2)NC(=O)CSC[C@@H](C(=O)N[C@@H](C)C(N)=O)NC(=O)[C@H]([C@@H](C)O)NC(=O)[C@H](C(C)C)NC1=O [Example 1345] ({CH2CO}-FYDWV[Bip]R[NMeA][NMeF][Orn]LVTCA-NH2; thioether N-14) |
| 310 nM | CC(C)C[C@@H]1NC(=O)[C@H](CCCNC(=N)N)NC(=O)[C@H](Cc2ccccc2)N(C)C(=O)[C@H](C)N(C)C(=O)[C@H](CCCN)NC(=O)[C@H](Cc2ccc(-c3ccccc3)cc2)NC(=O)[C@H](C(C)C)NC(=O)[C@H](Cc2c[nH]c3ccccc23)NC(=O)[C@H](CC(=O)O)NC(=O)[C@H](Cc2ccc(O)cc2)NC(=O)[C@H](Cc2ccccc2)NC(=O)CSC[C@@H](C(=O)N[C@@H](C)C(N)=O)NC(=O)[C@H]([C@@H](C)O)NC(=O)[C@H](C(C)C)NC1=O [Example 1346] ({CH2CO}-FYDWV[Bip][Orn][NMeA][NMeF]RLVTCA-NH2; thioether N-14) |
| 160 nM | CC(C)C[C@@H]1NC(=O)[C@H](CCCNC(=N)N)NC(=O)[C@H](Cc2ccccc2)N(C)C(=O)[C@H](C)N(C)C(=O)[C@H](CCCN)NC(=O)[C@H](Cc2ccc(-c3ccccc3)cc2)NC(=O)[C@H](C(C)C)NC(=O)[C@H](Cc2c[nH]c3ccccc23)NC(=O)[C@H](CC(=O)O)NC(=O)[C@H](Cc2ccc(O)cc2)NC(=O)[C@H](CC(N)=O)NC(=O)CSC[C@@H](C(=O)N[C@@H](C)C(N)=O)NC(=O)[C@H]([C@@H](C)O)NC(=O)[C@H](C(C)C)NC1=O [Example 1347] ({CH2CO}-NYDWV[Bip][Orn][NMeA][NMeF]RLVTCA-NH2; thioether N-14) |
| 220 nM | CC(C)C[C@@H]1NC(=O)[C@H](CCCNC(=N)N)NC(=O)[C@H](Cc2ccccc2)N(C)C(=O)[C@H](C)N(C)C(=O)[C@H](CCCNC(=N)N)NC(=O)[C@H](Cc2ccc(-c3ccccc3)cc2)NC(=O)[C@H](C(C)C)NC(=O)[C@H](Cc2c[nH]c3ccccc23)NC(=O)[C@H](CC(=O)O)NC(=O)[C@H](Cc2ccc(O)cc2)NC(=O)[C@H](Cc2cccnc2)NC(=O)CSC[C@@H](C(=O)N[C@@H](C)C(N)=O)NC(=O)[C@H]([C@@H](C)O)NC(=O)[C@H](C(C)C)NC1=O [Example 1348] ({CH2CO}-[3Pal]YDWV[Bip]R[NMeA][NMeF]RLVTCA-NH2; thioether N-14) |
| 330 nM | CC(C)C[C@@H]1NC(=O)[C@H](CCCNC(=N)N)NC(=O)[C@H](Cc2ccccc2)N(C)C(=O)[C@H](C)N(C)C(=O)[C@H](CCCNC(=N)N)NC(=O)[C@H](Cc2ccc(-c3ccccc3)cc2)NC(=O)[C@H](C(C)C)NC(=O)[C@H](Cc2c[nH]c3ccccc23)NC(=O)[C@H](CC(=O)O)NC(=O)[C@H](Cc2ccncc2)NC(=O)[C@H](CC(N)=O)NC(=O)CSC[C@@H](C(=O)N[C@@H](C)C(N)=O)NC(=O)[C@H]([C@@H](C)O)NC(=O)[C@H](C(C)C)NC1=O [Example 1349] ({CH2CO}-N[4Pal]DWV[Bip]R[NMeA][NMeF]RLVTCA-NH2; thioether N-14) |
